Numbered stars: 1 amine (or outer) side, 2 acyl side, 3 side chain; on linkers, the order of the positions; unused ones are H or OH. Bridge positions count the residues as written; N and C are the ends. Square brackets hold non-standard residues; d marks the D form. Peptide text beside a SMILES is read from it. * marks the point of attachment. DOTA = O=C(O)CN1CCN(CC(=O)O)CCN(CC(=O)*)CCN(CC(=O)O)CC1; TATA = O=C(CC[*:1])N1CN(C(=O)CC[*:2])CN(C(=O)CC[*:3])C1; Hyp = O=C(O)[C@@H]1C[C@@H](O)CN1; hArg = N=C(N)NCCCC[C@H](N)C(=O)O; Cba = N[C@@H](CC1CCC1)C(=O)O; βAla = NCCC(=O)O; Sar = CNCC(=O)O
How the values were obtained:
Human EphA1 = molecular target: T1, Human EphA1 (Homo sapiens, UniProt P21709); assay: SPR homologue panel, EphA1; details: human EphA1, n=1; read-out: KD, no binding up to
T1 construct: purchased Sino Biological 15789-H02H
T1 sequence (P21709 26-547 limits assumed): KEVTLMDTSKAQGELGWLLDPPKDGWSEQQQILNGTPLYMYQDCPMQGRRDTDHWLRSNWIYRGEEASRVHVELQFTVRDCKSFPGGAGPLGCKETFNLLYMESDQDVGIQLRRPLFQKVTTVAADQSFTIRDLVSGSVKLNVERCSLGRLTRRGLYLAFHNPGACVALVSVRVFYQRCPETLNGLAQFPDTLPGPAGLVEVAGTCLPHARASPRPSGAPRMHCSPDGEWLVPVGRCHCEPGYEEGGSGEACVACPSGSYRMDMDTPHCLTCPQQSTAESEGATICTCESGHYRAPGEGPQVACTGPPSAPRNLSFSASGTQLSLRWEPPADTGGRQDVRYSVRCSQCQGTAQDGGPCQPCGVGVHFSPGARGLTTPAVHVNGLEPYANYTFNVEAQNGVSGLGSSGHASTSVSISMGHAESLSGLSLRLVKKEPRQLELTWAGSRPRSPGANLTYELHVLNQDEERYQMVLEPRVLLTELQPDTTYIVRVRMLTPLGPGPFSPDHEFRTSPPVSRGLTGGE
Description: The commercial source details of the recombinant proteins used in SPR were as follows: Human proteins: EphA1 (15789-H02H, Sino Biological), EphA3 (644-A3, R&D Systems), EphA6 (5606-A6, R&D Systems), EphA7 (6756-A7, R&D Systems). Mouse proteins: Mouse EphA2 was purchased from R&D Systems (Product number 639-A2). Mouse EphA2-Fc was resuspended as per manufacturer's recommendations and material was passed through a SuperdexS200 column to remove aggregates.
(§1) SPR experiments were performed on a Biacore 8K+ (Cytiva Life Sciences, USA) instrument, with methods matched for both human and mouse EphA2 protein. Protein was captured on to a Cytiva NTA sensor chip (Cytiva Life Sciences), via the expressed His-tag; this was followed by primary amine coupling chemistry to covalently immobilize the protein to the chip at 25°C. Initially the surface was injected with 0.5 mM NiCl2 for 2 minutes, followed by activation of the carboxymethyl dextran surface for 7 minutes using an injection of a 1:1 ratio of 0.4 M 1-ethyl-3-(3-dimethylaminopropyl) carbodiimide hydrochloride (EDC)/0.1 M N-hydroxy succinimide (NHS) at a flow rate of 10 µL/min.
Peptide was prepared in PBS/0.05% Tween 20 with a final DMSO concentration of 0.5%. The top peptide concentration was 100 or 500 nM and 5 further 3-fold dilutions. […]

Human EphA4 = Human EphA4 (Homo sapiens, UniProt P54764); assay: SPR homologue panel, EphA4; details: human EphA4, n=1; read-out: KD, no binding up to
Sequence of Human EphA4 (P54764 20-986): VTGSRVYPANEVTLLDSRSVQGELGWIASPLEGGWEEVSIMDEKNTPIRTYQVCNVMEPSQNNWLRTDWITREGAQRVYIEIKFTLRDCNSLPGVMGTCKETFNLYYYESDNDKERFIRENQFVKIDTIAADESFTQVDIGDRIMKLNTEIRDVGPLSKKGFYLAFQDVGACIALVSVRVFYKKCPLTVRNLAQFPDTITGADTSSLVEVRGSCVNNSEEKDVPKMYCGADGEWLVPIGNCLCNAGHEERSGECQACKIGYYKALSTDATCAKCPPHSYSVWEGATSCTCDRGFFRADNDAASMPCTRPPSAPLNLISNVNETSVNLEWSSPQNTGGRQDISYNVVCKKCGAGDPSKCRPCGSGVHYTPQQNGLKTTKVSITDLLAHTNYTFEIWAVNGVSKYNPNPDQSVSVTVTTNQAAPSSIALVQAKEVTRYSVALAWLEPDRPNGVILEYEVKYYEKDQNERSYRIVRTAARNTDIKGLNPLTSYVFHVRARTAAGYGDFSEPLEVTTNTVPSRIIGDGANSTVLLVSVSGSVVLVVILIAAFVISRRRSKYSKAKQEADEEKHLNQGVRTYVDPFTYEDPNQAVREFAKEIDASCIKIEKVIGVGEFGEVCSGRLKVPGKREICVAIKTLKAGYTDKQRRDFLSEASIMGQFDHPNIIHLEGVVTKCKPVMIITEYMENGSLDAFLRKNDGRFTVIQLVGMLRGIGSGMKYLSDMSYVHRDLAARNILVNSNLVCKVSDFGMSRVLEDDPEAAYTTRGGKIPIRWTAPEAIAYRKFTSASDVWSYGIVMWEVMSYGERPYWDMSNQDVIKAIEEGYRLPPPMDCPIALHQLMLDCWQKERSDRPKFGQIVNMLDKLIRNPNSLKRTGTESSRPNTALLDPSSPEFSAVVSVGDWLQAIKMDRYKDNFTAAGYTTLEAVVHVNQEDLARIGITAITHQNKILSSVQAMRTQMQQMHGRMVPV

Human EphA2 = molecular target: T2, Human EphA2 (Homo sapiens, UniProt P29317); assay: SPR binding to human EphA2
T2 construct: Human EphA2 (residues 27-529) was cloned into pEXPR-IBA44; made in house; host or cells: HEK293 f/s cells
T2 sequence (P29317 27-529): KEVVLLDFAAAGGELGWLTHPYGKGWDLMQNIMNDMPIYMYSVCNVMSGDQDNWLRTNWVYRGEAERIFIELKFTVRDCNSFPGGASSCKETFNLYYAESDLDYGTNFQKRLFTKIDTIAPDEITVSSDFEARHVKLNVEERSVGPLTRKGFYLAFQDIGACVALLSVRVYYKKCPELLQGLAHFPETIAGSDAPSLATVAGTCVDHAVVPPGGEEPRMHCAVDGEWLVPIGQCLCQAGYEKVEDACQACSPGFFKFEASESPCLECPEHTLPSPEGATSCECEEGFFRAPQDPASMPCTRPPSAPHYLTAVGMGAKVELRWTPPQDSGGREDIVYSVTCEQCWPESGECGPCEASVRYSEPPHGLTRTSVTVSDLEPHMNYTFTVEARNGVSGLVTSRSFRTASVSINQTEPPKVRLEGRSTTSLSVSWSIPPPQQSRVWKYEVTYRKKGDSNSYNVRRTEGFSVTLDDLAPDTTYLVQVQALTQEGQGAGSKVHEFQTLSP
Description: Human EphA2 (residues 27-529) was cloned into pEXPR-IBA44 between the 5' NheI and 3' BsaI sites to make constructs expressing a BM40 signal sequence and C-terminal 6xHIS tag. For the expression and purification of the protein, HEK293 f/s cells at 1 x 10^6/mL in freestyle media (Thermo Fisher) were transfected with 1 µg DNA per million cells by PEI either 2:1 or 3:1 PEI:DNA ratio. On day 2 valproic acid was added to a 2.2 mM concentration. The supernatant was harvested 5 days post transfection and loaded on a 1 ml Ni-NTA agarose resin (Thermo Fisher) (wash buffer: 20 mM HEPES pH 7.6, 0.5 M NaCl, 5 mM imidazole, 0.01% Tween-20 buffer; elution buffer: 20 mM HEPES pH 7.6, 0.5 M NaCl, 300 mM imidazole, 0.01% Tween-20). The protein was concentrated to a volume of 2 mL, loaded onto an S-200 Superdex column (GE Healthcare) and eluted with 20 mM HEPES pH 7.6, 150 mM NaCl, 0.01% Tween-20 at a flow rate of 1 mL/min. Fractions were collected and those containing human EphA2 protein were concentrated for further use.
as §1
Human EphA2 protein was captured to the Ni-NTA surface to a level of 200-300 RU and Mouse EphA2 to 500-800 RU; the residual activated groups were then blocked with a 7 minute injection of 1 M ethanolamine (pH 8.5):HBS-N (1:1). Finally, the Ni-NTA surface was chelated with a 1-minute injection of 350 mM EDTA.
Peptide was prepared in PBS/0.05% Tween 20 with a final DMSO concentration of 0.5%. The top peptide concentration was 100 or 500 nM and 5 further 3-fold dilutions. The peptide was titrated over the chip using single cycle kinetics at 25°C at a flow rate of 75 µL/min with 60 second association and 4000 second dissociation. All data were double referenced for blank injections and reference surface using standard processing procedures. Data was characterized with a 1:1 kinetic binding model to determine kinetic rate constants ka (M^-1s^-1) and kd (s^-1) and equilibrium dissociation constant KD (nM). All data processing was performed using Cytiva Insight Evaluation (Cytiva Life Sciences, USA).

Kd (Human EphA1): > 5 µM | Kd (Human EphA4): > 5 µM | Kd (Human EphA2; human EphA2, 25°C, read-out: KD (SPR)): 0.00193 ± 0.00035 µM | kon (Human EphA2; human EphA2, n=2, read-out: ka): 1.82e+06 M⁻¹ s⁻¹
Structure (SMILES): CC(C)C[C@@H]1NC(=O)[C@@H]2CSCCC(=O)N3CN(CN(C3)C(=O)CCSC[C@H](NC(=O)[C@H](CC(=O)O)NC(=O)[C@H](CCCCNC(=N)N)NC(=O)[C@H](C)NC(=O)CN(C)C(=O)CN(C)C(=O)CN(C)C(=O)CN(C)C(=O)CN(C)C(=O)CN(C)C(=O)CN(C)C(=O)CN(C)C(=O)CN(C)C(=O)CN(C)C(=O)CCNC(=O)CN3CCN(CC(=O)O)CCN(CC(=O)O)CCN(CC(=O)O)CC3)C(=O)N3C[C@H](O)C[C@H]3C(=O)N[C@@H](CC3CCC3)C(=O)N[C@@H](C(C)C)C(=O)N[C@@H](CC(N)=O)C(=O)N3CCC[C@H]3C(=O)N[C@@H](CC(C)C)C(=O)N2)C(=O)CCSC[C@@H](C(N)=O)NC(=O)[C@H](CCCCNC(=N)N)NC(=O)[C@H](Cc2c[nH]c3ccccc23)NC(=O)[C@@H](CC(=O)O)NC(=O)[C@@H]2CCCN2C(=O)[C@H](Cc2c[nH]cn2)NC1=O [BCY18469, [-DOTA]-[B-Ala]-[Sar10]-Ala-[HArg]-Asp-Cys-[HyP]-[Cba]-Val-Asn-Pro-Leu-Cys-Leu-His-Pro-[dAsp]-Trp-[HArg]-Cys-CONH2] ({DOTA-βAla}-[Sar][Sar][Sar][Sar][Sar][Sar][Sar][Sar][Sar][Sar]A[hArg]DC[Hyp][Cba]VNPLCLHP[dD]W[hArg]C-NH2; linker 14-21-28 via TATA)

From publication PMC11373624, “Development and preclinical characterization of a novel radiotheranostic EphA2-targeting bicyclic peptide” (Theranostics, 2024)
